According to the kinase profiling compilation of Christmann-Franck et al. (2016):
Values belong to the molecule of their own block, whether it stands above or below them.

Experiments:
Experiment in all cases: KINOMEscan competition binding
Details in all cases: compound 10.0 µM
MYLK4 (human) = MYLK4 (human) (UniProt Q86YV6)
ITK (human) = ITK (human) (UniProt Q08881)
NTRK3 (human) = NTRK3 (human) (UniProt Q16288)
SLK (human) = SLK (human) (UniProt Q9H2G2)
RPS6KA3 KD1 (human) = RPS6KA3 KD1 (human) (UniProt P51812)
LIMK2 (human) = LIMK2 (human) (UniProt P53671)
[1] = test system: RET (human), P07949 [V804L]
NEK6 (human) = NEK6 (human) (UniProt Q9HC98)
MAPK15 (human) = MAPK15 (human) (UniProt Q8TD08)
GSK3A (human) = GSK3A (human) (UniProt P49840)
ULK3 (human) = ULK3 (human) (UniProt Q6PHR2)
CSNK2A1 (human) = CSNK2A1 (human) (UniProt P68400)
[2] = test system: PIK3CA (human), P42336 [E545K]
CAMKK2 (human) = CAMKK2 (human) (UniProt Q96RR4)
FER (human) = FER (human) (UniProt P16591)
CLK2 (human) = CLK2 (human) (UniProt P49760)
[3] = test system: EGFR (human), P00533 [G719S]
RIOK3 (human) = RIOK3 (human) (UniProt O14730)
PIM1 (human) = PIM1 (human) (UniProt P11309)
FGFR4 (human) = FGFR4 (human) (UniProt P22455)
[4] = biological target: JAK1 JH1 catalytic (human) (UniProt P23458)
RPS6KA1 KD2 (human) = RPS6KA1 KD2 (human) (UniProt Q15418)
STK10 (human) = STK10 (human) (UniProt O94804)
STK33 (human) = STK33 (human) (UniProt Q9BYT3)
DDR1 (human) = DDR1 (human) (UniProt Q08345)
DAPK2 (human) = DAPK2 (human) (UniProt Q9UIK4)
MYLK (human) = MYLK (human) (UniProt Q15746)
CSNK1D (human) = CSNK1D (human) (UniProt P48730)
CAMK1D (human) = CAMK1D (human) (UniProt Q8IU85)
MAPK14 (human) = MAPK14 (human) (UniProt Q16539)
MAP3K12 (human) = MAP3K12 (human) (UniProt Q12852)
DMPK (human) = DMPK (human) (UniProt Q09013)
EPHA1 (human) = EPHA1 (human) (UniProt P21709)
MKNK1 (human) = MKNK1 (human) (UniProt Q9BUB5)
CSNK1E (human) = CSNK1E (human) (UniProt P49674)
AAK1 (human) = AAK1 (human) (UniProt Q2M2I8)
[5] = test system: EGFR (human), P00533 [A750P; 747-749 del]
HIPK1 (human) = HIPK1 (human) (UniProt Q86Z02)
CDK7 (human) = CDK7 (human) (UniProt P50613)
IKBKB (human) = IKBKB (human) (UniProt O14920)
CSK (human) = CSK (human) (UniProt P41240)
EPHA6 (human) = EPHA6 (human) (UniProt Q9UF33)

Chain of CSNK2A1 (human) (P68400 whole entry, looked up): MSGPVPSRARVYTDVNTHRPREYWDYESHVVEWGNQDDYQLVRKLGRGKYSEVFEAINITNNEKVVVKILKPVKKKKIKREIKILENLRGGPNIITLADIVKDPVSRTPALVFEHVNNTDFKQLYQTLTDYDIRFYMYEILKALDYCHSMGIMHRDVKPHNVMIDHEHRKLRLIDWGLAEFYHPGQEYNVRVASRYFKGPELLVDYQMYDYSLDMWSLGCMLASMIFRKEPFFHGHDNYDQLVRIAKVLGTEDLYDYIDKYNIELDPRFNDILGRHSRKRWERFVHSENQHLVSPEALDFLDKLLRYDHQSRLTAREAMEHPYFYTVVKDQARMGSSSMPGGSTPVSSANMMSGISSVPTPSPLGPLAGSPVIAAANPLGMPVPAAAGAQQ
Chain of MAPK15 (human) (Q8TD08 whole entry, looked up): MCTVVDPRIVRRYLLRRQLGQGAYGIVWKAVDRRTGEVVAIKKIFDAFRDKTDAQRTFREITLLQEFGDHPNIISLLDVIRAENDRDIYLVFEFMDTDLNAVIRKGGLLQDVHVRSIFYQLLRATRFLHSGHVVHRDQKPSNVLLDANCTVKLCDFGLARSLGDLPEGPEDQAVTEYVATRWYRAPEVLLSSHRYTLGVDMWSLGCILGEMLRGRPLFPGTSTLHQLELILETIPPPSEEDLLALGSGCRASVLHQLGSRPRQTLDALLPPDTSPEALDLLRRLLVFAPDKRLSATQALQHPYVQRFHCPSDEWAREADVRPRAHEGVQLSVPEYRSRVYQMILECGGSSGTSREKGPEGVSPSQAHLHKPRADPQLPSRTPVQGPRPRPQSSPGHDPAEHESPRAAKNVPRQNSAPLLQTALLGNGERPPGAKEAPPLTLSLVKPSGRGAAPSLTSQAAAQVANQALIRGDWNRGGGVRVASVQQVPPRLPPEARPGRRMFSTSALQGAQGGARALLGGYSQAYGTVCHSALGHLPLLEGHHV
Chain of ULK3 (human) (Q6PHR2 whole entry, looked up): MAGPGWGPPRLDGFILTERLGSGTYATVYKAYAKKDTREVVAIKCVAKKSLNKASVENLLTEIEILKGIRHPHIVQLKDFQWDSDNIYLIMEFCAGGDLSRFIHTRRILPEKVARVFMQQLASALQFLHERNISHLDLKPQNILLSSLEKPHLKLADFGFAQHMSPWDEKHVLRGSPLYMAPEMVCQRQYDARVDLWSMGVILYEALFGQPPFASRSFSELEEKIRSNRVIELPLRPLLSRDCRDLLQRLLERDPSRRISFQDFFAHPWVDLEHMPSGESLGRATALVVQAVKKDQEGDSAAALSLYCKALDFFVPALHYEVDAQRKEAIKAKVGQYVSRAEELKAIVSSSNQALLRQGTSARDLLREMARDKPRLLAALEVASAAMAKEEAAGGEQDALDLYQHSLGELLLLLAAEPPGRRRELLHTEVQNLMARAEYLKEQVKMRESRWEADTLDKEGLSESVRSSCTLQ
Chain of GSK3A (human) (P49840 whole entry, looked up): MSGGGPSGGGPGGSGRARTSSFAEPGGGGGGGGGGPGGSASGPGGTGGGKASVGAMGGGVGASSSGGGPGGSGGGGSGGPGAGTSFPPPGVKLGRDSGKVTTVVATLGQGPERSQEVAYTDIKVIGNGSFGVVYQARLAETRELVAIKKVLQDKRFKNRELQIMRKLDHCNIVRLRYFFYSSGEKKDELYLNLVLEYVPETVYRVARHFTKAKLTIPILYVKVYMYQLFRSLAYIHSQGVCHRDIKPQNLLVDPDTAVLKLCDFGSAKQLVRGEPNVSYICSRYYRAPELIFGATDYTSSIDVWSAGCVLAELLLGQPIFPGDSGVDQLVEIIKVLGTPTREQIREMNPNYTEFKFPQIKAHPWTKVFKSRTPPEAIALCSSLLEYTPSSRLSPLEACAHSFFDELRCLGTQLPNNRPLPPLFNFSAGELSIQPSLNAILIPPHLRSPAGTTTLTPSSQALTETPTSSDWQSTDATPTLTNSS
Chain of RPS6KA3 KD1 (human) (P51812 whole entry, looked up): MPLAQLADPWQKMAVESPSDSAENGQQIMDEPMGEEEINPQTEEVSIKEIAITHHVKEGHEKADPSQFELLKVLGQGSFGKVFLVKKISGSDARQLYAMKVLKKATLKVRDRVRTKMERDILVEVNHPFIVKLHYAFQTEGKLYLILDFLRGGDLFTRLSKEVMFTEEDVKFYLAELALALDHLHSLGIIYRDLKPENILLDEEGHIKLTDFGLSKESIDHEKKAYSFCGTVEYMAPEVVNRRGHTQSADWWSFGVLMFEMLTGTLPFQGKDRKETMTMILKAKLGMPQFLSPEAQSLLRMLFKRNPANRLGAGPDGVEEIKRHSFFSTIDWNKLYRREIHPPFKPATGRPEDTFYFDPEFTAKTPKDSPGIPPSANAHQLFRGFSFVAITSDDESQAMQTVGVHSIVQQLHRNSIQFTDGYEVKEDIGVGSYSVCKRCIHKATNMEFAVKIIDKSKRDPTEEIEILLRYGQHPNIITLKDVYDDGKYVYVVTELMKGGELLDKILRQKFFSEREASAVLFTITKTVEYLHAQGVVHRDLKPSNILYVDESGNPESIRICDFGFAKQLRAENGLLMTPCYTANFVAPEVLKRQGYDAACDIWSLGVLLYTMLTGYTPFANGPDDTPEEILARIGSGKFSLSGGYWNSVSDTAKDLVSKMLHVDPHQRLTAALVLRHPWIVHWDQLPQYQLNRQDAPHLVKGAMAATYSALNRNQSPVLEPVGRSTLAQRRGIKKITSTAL
Chain of CDK7 (human) (P50613 whole entry, looked up): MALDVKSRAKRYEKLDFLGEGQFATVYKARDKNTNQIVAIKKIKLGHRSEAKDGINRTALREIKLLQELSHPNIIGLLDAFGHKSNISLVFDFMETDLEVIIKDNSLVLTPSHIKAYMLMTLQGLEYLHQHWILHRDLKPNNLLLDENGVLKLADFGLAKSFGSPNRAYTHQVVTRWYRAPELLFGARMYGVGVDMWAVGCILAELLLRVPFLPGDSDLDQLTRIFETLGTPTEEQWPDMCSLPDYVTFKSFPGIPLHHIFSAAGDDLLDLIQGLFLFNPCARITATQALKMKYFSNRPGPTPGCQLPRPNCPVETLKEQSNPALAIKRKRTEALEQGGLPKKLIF
Chain of CSNK1D (human) (P48730 whole entry, looked up): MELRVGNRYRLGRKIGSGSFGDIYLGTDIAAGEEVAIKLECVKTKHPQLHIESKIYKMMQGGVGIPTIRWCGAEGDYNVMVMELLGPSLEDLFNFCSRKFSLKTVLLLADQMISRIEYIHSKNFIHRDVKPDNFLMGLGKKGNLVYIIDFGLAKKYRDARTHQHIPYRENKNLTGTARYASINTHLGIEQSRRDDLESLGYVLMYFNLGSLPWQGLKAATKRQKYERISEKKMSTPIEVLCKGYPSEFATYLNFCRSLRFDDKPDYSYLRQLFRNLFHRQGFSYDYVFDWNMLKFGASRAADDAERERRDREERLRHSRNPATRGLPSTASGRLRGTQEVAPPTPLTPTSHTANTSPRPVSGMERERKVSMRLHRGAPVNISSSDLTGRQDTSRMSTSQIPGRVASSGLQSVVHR
Chain of EPHA1 (human) (P21709 whole entry, looked up): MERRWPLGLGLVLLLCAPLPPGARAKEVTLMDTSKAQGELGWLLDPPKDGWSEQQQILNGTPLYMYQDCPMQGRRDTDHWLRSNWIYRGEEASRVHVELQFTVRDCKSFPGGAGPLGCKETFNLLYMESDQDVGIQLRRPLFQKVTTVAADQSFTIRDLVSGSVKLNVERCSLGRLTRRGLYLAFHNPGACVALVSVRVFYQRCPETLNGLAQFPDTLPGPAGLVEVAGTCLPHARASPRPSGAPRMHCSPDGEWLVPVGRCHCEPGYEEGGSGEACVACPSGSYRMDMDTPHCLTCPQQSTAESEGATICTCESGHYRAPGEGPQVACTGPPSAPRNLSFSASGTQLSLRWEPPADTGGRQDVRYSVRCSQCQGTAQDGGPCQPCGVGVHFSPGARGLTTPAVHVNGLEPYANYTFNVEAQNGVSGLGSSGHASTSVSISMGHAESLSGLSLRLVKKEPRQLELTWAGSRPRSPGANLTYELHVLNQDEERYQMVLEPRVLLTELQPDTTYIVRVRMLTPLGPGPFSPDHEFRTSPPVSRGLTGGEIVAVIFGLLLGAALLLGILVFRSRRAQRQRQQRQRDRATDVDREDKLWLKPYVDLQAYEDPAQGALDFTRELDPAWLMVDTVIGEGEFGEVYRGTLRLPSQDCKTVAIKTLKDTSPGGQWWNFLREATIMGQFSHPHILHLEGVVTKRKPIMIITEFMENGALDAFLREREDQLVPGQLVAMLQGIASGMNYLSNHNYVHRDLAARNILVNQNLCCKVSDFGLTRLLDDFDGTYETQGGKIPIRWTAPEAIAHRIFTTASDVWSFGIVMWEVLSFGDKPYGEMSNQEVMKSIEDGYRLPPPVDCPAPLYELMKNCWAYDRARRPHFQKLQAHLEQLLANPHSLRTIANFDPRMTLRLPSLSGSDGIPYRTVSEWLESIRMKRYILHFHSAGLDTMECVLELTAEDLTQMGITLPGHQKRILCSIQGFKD
Chain of MYLK4 (human) (Q86YV6 whole entry, looked up): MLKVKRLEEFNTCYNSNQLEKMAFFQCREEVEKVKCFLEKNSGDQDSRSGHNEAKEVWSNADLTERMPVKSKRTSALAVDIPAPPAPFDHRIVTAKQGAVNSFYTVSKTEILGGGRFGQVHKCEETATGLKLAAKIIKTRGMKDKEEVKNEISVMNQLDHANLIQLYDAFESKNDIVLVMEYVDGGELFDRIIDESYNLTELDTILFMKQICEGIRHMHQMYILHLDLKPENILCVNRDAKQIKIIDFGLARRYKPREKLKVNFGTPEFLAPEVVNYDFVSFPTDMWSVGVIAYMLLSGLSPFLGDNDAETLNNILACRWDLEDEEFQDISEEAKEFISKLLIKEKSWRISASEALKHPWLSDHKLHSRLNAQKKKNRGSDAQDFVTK

- kinase still bound, per cent of control (MYLK4 (human)): 100%
- kinase still bound, per cent of control (ITK (human)): 98%
- kinase still bound, per cent of control (NTRK3 (human)): 79%
- kinase still bound, per cent of control (SLK (human)): 100%
- kinase still bound, per cent of control (RPS6KA3 KD1 (human)): 92%
- kinase still bound, per cent of control (LIMK2 (human)): 86%
- kinase still bound, per cent of control [1]: 100%
- kinase still bound, per cent of control (NEK6 (human)): 100%
- kinase still bound, per cent of control (GSK3A (human)): 100%
- kinase still bound, per cent of control (ULK3 (human)): 100%
- kinase still bound, per cent of control (CSNK2A1 (human)): 88%
- kinase still bound, per cent of control [2]: 97%
- kinase still bound, per cent of control (CAMKK2 (human)): 53%
- kinase still bound, per cent of control (FER (human)): 80%
- kinase still bound, per cent of control (CLK2 (human)): 81%
- kinase still bound, per cent of control [3]: 90%
- kinase still bound, per cent of control (RIOK3 (human)): 77%
- kinase still bound, per cent of control (PIM1 (human)): 91%
- kinase still bound, per cent of control (FGFR4 (human)): 97%
- kinase still bound, per cent of control [4]: 53%
- kinase still bound, per cent of control (RPS6KA1 KD2 (human)): 56%
- kinase still bound, per cent of control (STK10 (human)): 100%
- kinase still bound, per cent of control (STK33 (human)): 58%
- kinase still bound, per cent of control (DDR1 (human)): 93%
- kinase still bound, per cent of control (DAPK2 (human)): 84%
- kinase still bound, per cent of control (MYLK (human)): 97%
- kinase still bound, per cent of control (CSNK1D (human)): 76%
- kinase still bound, per cent of control (CAMK1D (human)): 99%
- kinase still bound, per cent of control (MAPK14 (human)): 100%
- kinase still bound, per cent of control (MAP3K12 (human)): 100%
- kinase still bound, per cent of control (DMPK (human)): 100%
- kinase still bound, per cent of control (EPHA1 (human)): 100%
- kinase still bound, per cent of control (MKNK1 (human)): 100%
- kinase still bound, per cent of control (CSNK1E (human)): 56%
- kinase still bound, per cent of control (AAK1 (human)): 88%
- kinase still bound, per cent of control [5]: 49%
- kinase still bound, per cent of control (HIPK1 (human)): 68%
- kinase still bound, per cent of control (CDK7 (human)): 100%
- kinase still bound, per cent of control (IKBKB (human)): 75%
- kinase still bound, per cent of control (CSK (human)): 95%
- kinase still bound, per cent of control (EPHA6 (human)): 100%
SMILES: COc1cc(N2CCN(C)CC2)ccc1Nc1ncc2c(n1)N(C)c1ccccc1N(C)C2=O
- kinase still bound, per cent of control (MAPK15 (human)): 100%

- kinase still bound, per cent of control (MYLK4 (human)): 100%
- kinase still bound, per cent of control (ITK (human)): 96%
- kinase still bound, per cent of control (NTRK3 (human)): 82%
- kinase still bound, per cent of control (SLK (human)): 100%
- kinase still bound, per cent of control (RPS6KA3 KD1 (human)): 85%
- kinase still bound, per cent of control (LIMK2 (human)): 100%
- kinase still bound, per cent of control [1]: 1.7%
- kinase still bound, per cent of control (NEK6 (human)): 96%
- kinase still bound, per cent of control (GSK3A (human)): 100%
- kinase still bound, per cent of control (ULK3 (human)): 77%
- kinase still bound, per cent of control (CSNK2A1 (human)): 86%
- kinase still bound, per cent of control [2]: 100%
- kinase still bound, per cent of control (CAMKK2 (human)): 55%
- kinase still bound, per cent of control (FER (human)): 100%
- kinase still bound, per cent of control (CLK2 (human)): 100%
- kinase still bound, per cent of control [3]: 100%
- kinase still bound, per cent of control (RIOK3 (human)): 82%
- kinase still bound, per cent of control (PIM1 (human)): 91%
- kinase still bound, per cent of control (FGFR4 (human)): 73%
- kinase still bound, per cent of control [4]: 30%
- kinase still bound, per cent of control (RPS6KA1 KD2 (human)): 45%
- kinase still bound, per cent of control (STK10 (human)): 100%
- kinase still bound, per cent of control (STK33 (human)): 75%
- kinase still bound, per cent of control (DDR1 (human)): 68%
- kinase still bound, per cent of control (DAPK2 (human)): 100%
- kinase still bound, per cent of control (MYLK (human)): 63%
- kinase still bound, per cent of control (CSNK1D (human)): 77%
- kinase still bound, per cent of control (CAMK1D (human)): 98%
- kinase still bound, per cent of control (MAPK14 (human)): 100%
- kinase still bound, per cent of control (MAP3K12 (human)): 85%
- kinase still bound, per cent of control (DMPK (human)): 100%
- kinase still bound, per cent of control (EPHA1 (human)): 100%
- kinase still bound, per cent of control (MKNK1 (human)): 28%
- kinase still bound, per cent of control (CSNK1E (human)): 100%
- kinase still bound, per cent of control (AAK1 (human)): 62%
- kinase still bound, per cent of control [5]: 98%
- kinase still bound, per cent of control (HIPK1 (human)): 95%
- kinase still bound, per cent of control (CDK7 (human)): 60%
- kinase still bound, per cent of control (IKBKB (human)): 86%
- kinase still bound, per cent of control (CSK (human)): 91%
- kinase still bound, per cent of control (EPHA6 (human)): 100%
SMILES: CN1C(=O)c2ccccc2N(C)c2nc(Nc3ccc(N4CCC(O)CC4)cc3)ncc21
- kinase still bound, per cent of control (MAPK15 (human)): 100%

- kinase still bound, per cent of control (MYLK4 (human)): 100%
- kinase still bound, per cent of control (ITK (human)): 90%
- kinase still bound, per cent of control (NTRK3 (human)): 93%
- kinase still bound, per cent of control (SLK (human)): 95%
- kinase still bound, per cent of control (RPS6KA3 KD1 (human)): 55%
- kinase still bound, per cent of control (LIMK2 (human)): 100%
- kinase still bound, per cent of control [1]: 100%
- kinase still bound, per cent of control (NEK6 (human)): 30%
- kinase still bound, per cent of control (GSK3A (human)): 100%
- kinase still bound, per cent of control (ULK3 (human)): 100%
- kinase still bound, per cent of control (CSNK2A1 (human)): 100%
- kinase still bound, per cent of control [2]: 88%
- kinase still bound, per cent of control (CAMKK2 (human)): 60%
- kinase still bound, per cent of control (FER (human)): 74%
- kinase still bound, per cent of control (CLK2 (human)): 55%
- kinase still bound, per cent of control [3]: 76%
- kinase still bound, per cent of control (RIOK3 (human)): 92%
- kinase still bound, per cent of control (PIM1 (human)): 91%
- kinase still bound, per cent of control (FGFR4 (human)): 56%
- kinase still bound, per cent of control [4]: 100%
- kinase still bound, per cent of control (RPS6KA1 KD2 (human)): 8%
- kinase still bound, per cent of control (STK10 (human)): 100%
- kinase still bound, per cent of control (STK33 (human)): 3.3%
- kinase still bound, per cent of control (DDR1 (human)): 100%
- kinase still bound, per cent of control (DAPK2 (human)): 36%
- kinase still bound, per cent of control (MYLK (human)): 16%
- kinase still bound, per cent of control (CSNK1D (human)): 60%
- kinase still bound, per cent of control (CAMK1D (human)): 87%
- kinase still bound, per cent of control (MAPK14 (human)): 61%
- kinase still bound, per cent of control (MAP3K12 (human)): 71%
- kinase still bound, per cent of control (DMPK (human)): 65%
- kinase still bound, per cent of control (EPHA1 (human)): 100%
- kinase still bound, per cent of control (MKNK1 (human)): 48%
- kinase still bound, per cent of control (CSNK1E (human)): 92%
- kinase still bound, per cent of control (AAK1 (human)): 35%
- kinase still bound, per cent of control [5]: 84%
- kinase still bound, per cent of control (HIPK1 (human)): 73%
- kinase still bound, per cent of control (CDK7 (human)): 83%
- kinase still bound, per cent of control (IKBKB (human)): 92%
- kinase still bound, per cent of control (CSK (human)): 90%
- kinase still bound, per cent of control (EPHA6 (human)): 82%
SMILES: COc1cc(N2CCC(O)CC2)ccc1Nc1ncc2c(n1)N1CCc3cccc(c31)C(=O)N2C
- kinase still bound, per cent of control (MAPK15 (human)): 100%
